Converted amounts (≈) assume the structure as drawn. Counter-ions that a name gives are not always drawn.
Assays:
[1] = Pharmacokinetic evaluation: edaravone in plasma after single oral administration to rats; format: in vivo, SD (Sprague-Dawley) rats; conditions: SD rats
Method: The pharmacokinetic test of the compounds of Examples and Reference Example was carried out as follows. That is, after a single oral administration of the test compound to SD (Sprague-Dawley) rats, the efficacy of the compound of the present invention was verified by tracking the kinetics of the edaravone released into the blood by metabolic processes and comparing it with a standard substance. Specifically, edaravone, a standard substance, was administered intravenously and orally, respectively, and the test compounds were administered orally. Then, the concentration of edaravone in blood was evaluated. The standard substance and the test compounds were each prepared in the same manner and then administered to rats at a dose of 0.1 mmol/kg, and blood was collected at a predetermined time and plasma was separated. Analysis of the drug was performed using HPLC (XBridge column Cis, Waters, mobile phase 0.1% formic acid:acetonitrile (30:70, %/%)) and MS/MS (ESI positive, MRM). Each commercial standard solution was mixed in a ratio of 9:1 with rat plasma to prepare and calibrate at concentrations of 5, 50, 100, 500, 1000 and 5000 ng/ml. In addition, the QC sample was prepared by mixing the rat plasma and the standard solution for QC at a ratio of 9:1, and at concentrations of 100, 750 and 2,500 ng/ml. In the pretreatment method, 100 μl of plasma sample was transferred to a tube for centrifugation, 10 μl of an internal standard solution and 300 μl of methanol were added, followed by mixing for about 30 seconds. The tube was centrifuged at 3,000×g (4° C.) for about 5 minutes, the supernatant was taken and transferred to an LC vial, and then injected into the instrument. In addition, the concentration of an active ingredient, that is, edaravone, in rat plasma was quantified by applying a previously validated analysis method. For pharmacokinetic parameters, WinNonlin 5.2 (Pharsight, USA) program was used, and AUC0-t, AUC0-∞, Cmax, Tmax, and t1/2 were calculated by noncompartment modeling (best fit). The pharmacokinetic parameter results were expressed as mean and standard deviation (SD), and statistically processed using the SPSS program (Statistical Package for the Social Sciences, 10.0K, USA).

[2] = cited from earlier work
[3] = in vivo; cited from earlier work
[4] = cited from earlier work; remark: listed apart in the source

Row | SMILES | oral bioavailability (in words) [1] | solubility [2] [µg/mL] | oral absorption rate (Fabs) [3] [%] | permeability (Peff) [4] [×10⁻⁶ cm/s]
1 | Cc1cc(OC(=O)N2CCN(C(=O)[C@@H](N)CCCCN)CC2)n(-c2ccccc2)n1 [Example 19, (S)-3-methyl-1-phenyl-1H-pyrazol-5-yl 4-(2,6-diaminohexanoyl)piperazine-1-carboxylate Dihydrochloride] | excellent |  |  | 
2 | CC1=NN(c2ccccc2)C(=O)C1 [edaravone] |  | 1850 (≈ 10.6 mM) | 5.23 | 0.318
3 | Cc1cc(OC(=O)N2CCN(C(=O)[C@@H](N)C(C)C)CC2)n(-c2ccccc2)n1.Cl [Example 10, (S)-3-methyl-1-phenyl-1H-pyrazol-5-yl 4-(2-amino-3-methylbutanoyl)piperazine-1-carboxylate Hydrochloride] | excellent |  |  | 
4 | Cc1cc(OC(=O)N2CCN(C(=O)[C@@H](N)C(C)C)[C@@H](C)C2)n(-c2ccccc2)n1.Cl [Example 14, (S)-3-methyl-1-phenyl-1H-pyrazol-5-yl 4-((S)-2-amino-3-methylbutanoyl)-3-methylpiperazin-1-carboxylate Hydrochloride] | excellent |  |  | 
5 | Cc1cc(OC(=O)N2CCN(C(=O)[C@@H](N)C(C)(C)C)CC2)n(-c2ccccc2)n1.Cl [Example 15, (S)-3-methyl-1-phenyl-1H-pyrazol-5-yl 4-(2-amino-3,3-dimethylbutanoyl)piperazine-1-carboxylate Hydrochloride] | excellent |  |  | 

— patent US11427547B2, “Edaravone prodrug compound and pharmaceutical use thereof in treatment or alleviation of neurodegenerative or motor neuron disease” (J2H BIOTECH INC., priority 2018, dated 2022)
